These results are taken from a melting point compilation (Tetko et al.; mined from patent text by program, amines drawn as free bases though some values may be those of a salt).

Structures are written as SMILES.

With `CCCCN(CCCC(=O)O)C(=O)c1ccccc1`, the melting point (usually the temperature, or range, at which the solid turns liquid) fell in the range of 62 to 64 °C.
For `CNC(=O)c1ccc(C(=O)OC)cc1` the value was 126 °C.
For `CCCCC(NC(=O)OCc1ccccc1)C(=O)Nc1n[nH]c(=S)s1` (centres undefined) the value was 169 to 171 °C; for `COC1(c2nc(Sc3ccc(/C(C)=N/O)cc3)cs2)CCOCC1`, 89 °C; for `Clc1ccc(C2(Cn3cncn3)OC2c2ccc(Cl)cc2Cl)cc1` (centres undefined), 119 °C.
Consider `CS(=O)(=O)c1ccc(C(CC2CCCC2)C(=O)Nc2nccs2)cc1C#N` (centres undefined), for which the melting point was in the range of 145 to 148 °C.
`CC1(C)Oc2ccc(C#N)cc2[C@@H](NC2=CC(=O)CC2)[C@@H]1O` (relative stereo) came in with a melting point of 174 to 176 °C.
The same measure for `CC(=O)OC1(C(=O)CCl)CCC2C3CCC4=CC(=O)CCC4(C)C3CCC21C` (centres undefined): 219 to 221 °C.
The compound `Cc1ccc(-n2c(-c3sc(Nc4ccccc4)nc3C)nc3ccccc3c2=O)cc1` yielded a melting point of 256 to 257 °C.
For `COc1ccc(C(=O)O)c(OCc2ccc(OCCc3nc(-c4ccccc4)oc3C)cc2)c1` the value was 113 to 115 °C; for `C=C1C=CC2CC1C(Cc1ccc(OC)cc1)NC2=O` (centres undefined), 132 to 133 °C.
As for `COc1ccc(Br)c2c1CC(NC(C1CC1)C1CC1)CC2` (single isomer, unassigned; (-)), the melting point lay within 153 to 154 °C.
The same measure for `COC1=C(OC)C(=O)C(CN2CCN(C(=S)SC)CC2)=C(C)C1=O`: 115 to 116 °C; for `CN(C)c1cccc(-n2c(=O)c(CCCc3ccncc3)cc3cccnc32)c1`: 124 to 127 °C.
For `CCCCCS(=O)(=O)NC(=O)c1ccc2nc(C)n(Cc3ccc(N(C)C(=O)OCC)cc3Cl)c2n1` the value was 149 to 150 °C; for `CCCOc1ccc(S(=O)(=O)N2CCN(CC)CC2)cc1C(=O)O`, 143 to 145 °C; for `COC(=O)CCCc1cc2nc(Cl)ccc2n1S(=O)(=O)c1cccc(-c2cncs2)c1`, 147 to 148 °C.
For `Cc1[nH]c(=O)ccc1C(=O)c1ccccc1` the value was 185 to 187 °C.
In turn, `O=S(=O)(Cl)c1cccc2c1COC2` registered a melting point of 40 to 43 °C.
For `COc1ccc(C(=O)Nc2c(Cl)cncc2Cl)c2c3ccccc3n(Cc3ccc(F)cc3)c12` the value was 222 to 225 °C; for `CC(NC(=O)c1cc(Cl)ccc1NC(=O)C1CC(=O)NN1)C1CC1` (centres undefined), 248 °C; for `COC1CCC(S(=O)(=O)c2ccccc2)O1` (centres undefined), 68 °C.
For `CC(Oc1ccc(S(C)(=O)=O)cc1)c1ccnc2ncnn12` (centres undefined) the value was 163 to 164 °C.
In the case of `CC(O)c1ccc2c(c1)ncn2-c1cccc(-c2cccnc2O)c1` (centres undefined), the melting point lay within 133 to 137 °C.
For `CC#Cc1cc(=O)n2nc(SCCCCCC)sc2n1` the value was 94 to 97 °C.
For `N#Cc1cccc(CSc2nnc(-c3ccnc(NC(=O)CCc4ccccc4)c3)o2)c1` the value was 153 to 154 °C; for `N[C@@H](CSCCC1CCN(C(=O)OCc2ccccc2)CC1)C(=O)O`, 185 to 188 °C.
The same measure for `CC(C)(C)SC(=O)C=CC1C(C(=O)OCc2ccc(F)c(Oc3ccccc3)c2)C1(C)C` (centres undefined): 82 °C.
`Clc1cc(CCc2ccccn2)c2oc(-c3cn[nH]c3)nc2c1` showed a melting point of 204 to 208 °C.
The same measure for `CCOC(=O)C(OCc1ccccc1)C(=O)c1cc(Cl)ccc1OCc1ccccc1` (centres undefined): 64 to 65 °C.
The same measure for `OC(CNC1CC1)COc1ccc(-c2nccs2)cc1` (centres undefined): 100 to 102 °C; for `CCC(=O)NC(=O)CCCCBr`: 94 to 97 °C; for `COc1ccc2c(c1)CC(C)(CN1CCN(c3ccccc3)CC1)NC2=O` (centres undefined): 93 to 95 °C.
The same measure for `Cc1cc2c(c3occ(-c4ccc(C(C)C)cc4)c13)CCCC2`: 97 to 98 °C; for `COc1ccc(-c2cnn3ccc(-c4ccc(OCCCNC(=O)OC(C)(C)C)c(OC)c4)nc23)cc1OC`: 131 to 133 °C.
`COc1ccc(NC(=O)Nc2nc3nc(NCCCN4CCN(C)CC4)ncc3cc2-c2c(Cl)cccc2Cl)cc1` came in with a melting point of 93.5 to 100 °C.
As to `O=C(OCc1ccccc1)C(CC(=O)N1Cc2cscc2C1)Cc1ccccc1` (centres undefined), the melting point fell in the range of 122 to 124 °C.
The compound `CCOC(=O)C(C)COc1ccccc1-c1cc(C#N)c(=O)[nH]c1C` (centres undefined) came in with a melting point of 167 to 170 °C.
For `CC(C)c1nc(-c2ccc(-c3cnc4[nH]c(=O)n(CC5CCOCC5)c4n3)cc2)n[nH]1` the value was 305 to 308 °C; for `O=CN(O)C1(CS(=O)(=O)c2ccc(Oc3ccc(OC(F)(F)F)cc3)cc2)CCC2(CC1)OCCO2`, 133 to 134 °C; for `CC(C)C[C@H](NC(=O)N1CCN(c2ccccc2)CC1)C(=O)OCc1ccccc1`, 88 °C.
As to `C=Cc1cc2c(Cl)cc(F)c(-n3c(=O)cc(C(F)(F)F)n(C)c3=O)c2o1`, the melting point was in the range of 108 to 109 °C.
For `Cc1cccc(CC(=O)c2ccnc(-c3ccc(C=O)cc3)c2)n1` the value was 118 °C.
For `Cn1ncc(/C=C/C(=O)Nc2ccc(CCc3nccs3)cc2)c1-c1ccc(F)cc1` the value was 201 to 202 °C.
For `O=[N+]([O-])c1cc(-c2ccccc2)ccc1Cl` the value was 43 to 44 °C; for `COc1ccc(C2Sc3ccccc3N(CCN(C)C)C(=O)C2OC(C)=O)cc1` (centres undefined), 134 to 135 °C; for `COC1(c2ccc(Sc3ccc4c(c3)OCC(=O)N4C)s2)CCOCC1`, 65 to 69 °C.
`Cc1c(NC(=O)c2ccc(-c3ccc(F)cc3)cc2)ccc2cc(C(C)O)cnc12` (centres undefined) came in with a melting point of 189 to 192 °C.
The compound `COC(=O)N[C@@H](CSc1ccccc1)[C@H](O)CCl` came in with a melting point of 113 to 114 °C.
The same measure for `CCOC(=O)C=CCCc1cn(C(c2ccccc2)(c2ccccc2)c2ccccc2)cn1`: 86 to 88 °C; for `O=c1[nH]c2ccccc2n1CCCN1CCN(C(c2ccccc2)c2ccccc2Cl)CC1` (centres undefined): 139 °C; for `CCCCCCCOC(=O)Oc1ccncc1`: 44 to 50 °C.
Take `CCN(CC)c1ccc(F)c2nc3n(c12)CCCN3c1ccc(Cl)cc1Cl`: the melting point lay within 170 to 172 °C.
For `Cc1cc(Br)cnc1CCCCNc1ncc(Cc2ccn(Cc3ccccc3)c(=O)c2)c(=O)[nH]1` the value was 140 to 144 °C; for `O=c1oc(-c2ccccc2)cc(O)c1C(SC1CCCCC1)c1ccccc1` (centres undefined), 189 to 191 °C; for `COc1ccc(CNc2c3c(nc4ccccc24)CCCC3O)cc1` (centres undefined), 163 to 165 °C.
For `CC(C=CCC(C)(O)CO)C1CCC2C(O)CCCC12C` (centres undefined) the value was 87 to 88 °C; for `CC(C)N(C[C@H](O)COc1ccc(OCc2ccccc2)cc1)S(C)(=O)=O`, 96 to 97 °C.
The same measure for `O=C(OC1COC(OC(=O)c2ccccc2)CO1)c1ccccc1` (centres undefined): 187 to 189 °C; for `O=C(O)C1(c2ccc3c(c2)OCO3)CC(F)(F)C1(F)F` (centres undefined): 168 to 169 °C; for `CN(c1cccc2cc(-c3nccs3)[nH]c12)S(=O)(=O)c1ccsc1C(=O)N1CCOCC1`: 190 °C.
The compound `COC(=O)C1=C(C)Nc2nccn2C1c1ccccn1` (centres undefined) showed a melting point of 224 to 226 °C.
The same measure for `COC(=O)c1cc2cc(OC)c(OC)cc2c(-c2ccnc(-n3c(=O)cc(NCCCn4ccnc4)c4ccccc43)c2)c1C(=O)OC`: 142 to 148 °C.
The same measure for `CCOC(=O)c1cccc2c1CCC2C#N` (centres undefined): 93 to 95.5 °C.
The same measure for `NC1=NCc2c[nH]c3cccc1c23`: 233 to 235 °C.
Turning to `CC(C)C1=C(C#N)C(c2cccc3nocc23)c2c[nH]nc2N1` (centres undefined), the melting point is 245 °C.
The same measure for `COc1cc(C(=O)O)ccc1Cc1cn(C)c2ccc(C(=O)NCC3CCCC3)cc12`: 237 to 239 °C; for `COc1nc(OC)c(C=CC(C)=O)c(N(C)C)n1`: 116 °C; for `Cc1ccccc1C(=O)c1[nH]c2cc(Cl)ccc2c1CC(=O)O`: 150 to 152 °C.
`COc1ccc(C2COc3cc(O)c(O)cc3C2)cc1` (centres undefined) gave a melting point of 160 °C.
In the case of `Cc1ccccc1OCCCN1CCC(C(O)(c2ccc(F)cc2)c2ccc(F)cc2)CC1`, the melting point was 108 to 109 °C.
The same measure for `CCC=C(CCC)C(=O)O`: 38 °C; for `C=C1CSC(=C(C#N)n2ccnc2)S1`: 116 °C.
`CC(C)C1COCc2nc3c(N)nc4c(c3n21)CCCC4` (centres undefined): the melting point is 158 to 160 °C.
The compound `CC(O)(C(=O)Nc1ccc(S(=O)(=O)N2CCCCC2)cc1)C(F)(F)F` (centres undefined) yielded a melting point of 164 to 166 °C.
The same measure for `Clc1ccc2c(c1)CNc1cc(Cl)ccc1O2`: 103 to 105 °C; for `BrCCC=C1c2ccccc2C=Cc2ccccc21`: 88 to 89 °C.
Compound `O=C(O)c1ccc(C(=O)NOCCC23CC4CC(CC(C4)C2)C3)cc1` registered a melting point of 197 to 200 °C.
The same measure for `COc1cccc(OCc2ccc(C(=O)N(C)C3CCCCC3)cc2)c1`: 90.4 °C.
The same measure for `OCc1cn2c(n1)sc1ccccc12`: 131 °C; for `NC1=NC(c2cccc(-c3cccnc3F)c2)C2=NC(c3ccc(OC(F)F)cc3)C3(CCC3)CN12` (centres undefined): 220 to 226 °C.
`CCOc1ccccc1OCC(O)CCN1C(=O)c2ccccc2C1=O` (centres undefined): the melting point lay within 93 to 95 °C.
The same measure for `CCC=CCn1c(=O)sc2c(=O)n(N)c(N)nc21`: 137 to 139 °C.
Regarding `COc1cc2c(c(OC)c1OC)C(=O)C(CCCCCCC1Cc3cc(OC)c(OC)c(OC)c3C1=O)C2` (centres undefined), the melting point was 129 to 130 °C.
On to `Cc1nn(-c2cc(I)c(Cl)cc2F)c(=O)n1C(F)F`, for which the melting point was 125 to 127 °C.
The same measure for `Cc1[nH]c(=S)n(Nc2cccc(Cl)c2)c1-c1cccc(Br)c1`: 196 °C.
The same measure for `N=c1cc(NC(=S)NCc2ccccc2)nc2n1CCCS2`: 189 to 190 °C.
The same measure for `COc1ccc(-c2c3c(cc4ccc5c(c24)OCO5)C(=O)OC3)cc1`: 217 to 219 °C; for `Cc1nnc(CNC(=O)CN(C)C)n1-c1ccc(Cl)cc1C(=O)c1ccccc1`: 176 to 178 °C.
